EC50 data for 15 compounds are collected here from BindingDB's records for doi:10.1016/s0960-894x(03)00205-1 (Abbott Laboratories, 2003).

The experiment is described as follows: Potassium channel opening activity in vitro using LtK cells transfected with Kir6.2/SUR2B exon 17.

Usually EC50 stands for the midpoint of the concentration-response curve. For the compound `O=C(Nc1c(C(O)(C(F)(F)F)C(F)(F)F)ccc2ccccc12)c1cccc(C(F)(F)F)c1` [N-[2-(2,2,2-Trifluoro-1-hydroxy-1-trifluoromethyl-ethyl)-naphthalen-1-yl]-3-trifluoromethyl-benzamide], the EC50 turned out to be 84 nM.

The compound `O=C(Nc1c(C(O)(C(F)(F)F)C(F)(F)F)ccc2ccccc12)c1ccc(I)cc1` [4-Iodo-N-[2-(2,2,2-trifluoro-1-hydroxy-1-trifluoromethyl-ethyl)-naphthalen-1-yl]-benzamide] showed an EC50 of 154 nM.

The compound `CCC(C)C(=O)Nc1c(C(O)(C(F)(F)F)C(F)(F)F)ccc2ccccc12` (stereo not given) [2-Methyl-N-[2-(2,2,2-trifluoro-1-hydroxy-1-trifluoromethyl-ethyl)-naphthalen-1-yl]-butyramide] gave a half-maximal effective concentration (EC50) of 177000 nM.

As to `CC(=O)Nc1c(C(O)(C(F)(F)F)C(F)(F)F)cc(Br)c2ccccc12` [N-[4-Bromo-2-(2,2,2-trifluoro-1-hydroxy-1-trifluoromethyl-ethyl)-naphthalen-1-yl]-acetamide], the EC50 is 5310 nM.

Compound `Cc1ccccc1C(=O)Nc1c(C(O)(C(F)(F)F)C(F)(F)F)ccc2ccccc12` [2-Methyl-N-[2-(2,2,2-trifluoro-1-hydroxy-1-trifluoromethyl-ethyl)-naphthalen-1-yl]-benzamide] returned an EC50 of 5550 nM.

The compound `COc1cccc(C(=O)Nc2c(C(O)(C(F)(F)F)C(F)(F)F)ccc3ccccc23)c1` [3-Methoxy-N-[2-(2,2,2-trifluoro-1-hydroxy-1-trifluoromethyl-ethyl)-naphthalen-1-yl]-benzamide] displayed an EC50 of 185 nM.

In turn, `O=C(Nc1c(C(O)(C(F)(F)F)C(F)(F)F)ccc2ccccc12)c1ccco1` [Furan-2-carboxylic acid [2-(2,2,2-trifluoro-1-hydroxy-1-trifluoromethyl-ethyl)-naphthalen-1-yl]-amide] came in with an EC50 of 9 nM.

For the compound `N#Cc1cccc(C(=O)Nc2c(C(O)(C(F)(F)F)C(F)(F)F)ccc3ccccc23)c1` [3-Cyano-N-[2-(2,2,2-trifluoro-1-hydroxy-1-trifluoromethyl-ethyl)-naphthalen-1-yl]-benzamide], the response was half-maximal at 12 nM (EC50).

In the case of `O=C(Nc1c(C(O)(C(F)(F)F)C(F)(F)F)ccc2ccccc12)c1ccc(Br)cc1` [4-Bromo-N-[2-(2,2,2-trifluoro-1-hydroxy-1-trifluoromethyl-ethyl)-naphthalen-1-yl]-benzamide], the EC50 stood at 47 nM.

With `O=C(Nc1c(C(O)(C(F)(F)F)C(F)(F)F)ccc2ccccc12)C1CCC1` [Cyclobutanecarboxylic acid [2-(2,2,2-trifluoro-1-hydroxy-1-trifluoromethyl-ethyl)-naphthalen-1-yl]-amide], the EC50 is 45 nM.

In turn, `O=C(CCc1ccccc1)Nc1c(C(O)(C(F)(F)F)C(F)(F)F)ccc2ccccc12` [3-Phenyl-N-[2-(2,2,2-trifluoro-1-hydroxy-1-trifluoromethyl-ethyl)-naphthalen-1-yl]-propionamide] yielded a concentration giving a half-maximal response (EC50) of 1750 nM.

Compound `O=C(Nc1c(C(O)(C(F)(F)F)C(F)(F)F)ccc2ccccc12)c1cccc([N+](=O)[O-])c1` [3-Nitro-N-[2-(2,2,2-trifluoro-1-hydroxy-1-trifluoromethyl-ethyl)-naphthalen-1-yl]-benzamide] had an EC50 of 117 nM.

Compound `O=C(Nc1c(C(O)(C(F)(F)F)C(F)(F)F)ccc2ccccc12)c1cccc(Cl)c1Cl` [2,3-Dichloro-N-[2-(2,2,2-trifluoro-1-hydroxy-1-trifluoromethyl-ethyl)-naphthalen-1-yl]-benzamide] had an EC50 of over 10000 nM.

The compound `O=C(Nc1c(C(O)(C(F)(F)F)C(F)(F)F)ccc2ccccc12)c1cc2ccccc2s1` [Benzo[b]thiophene-2-carboxylic acid [2-(2,2,2-trifluoro-1-hydroxy-1-trifluoromethyl-ethyl)-naphthalen-1-yl]-amide] registered a concentration for a half-maximal effect (EC50) of over 10000 nM.

Regarding `O=C(Nc1c(C(O)(C(F)(F)F)C(F)(F)F)ccc2ccccc12)c1ccc(F)cc1` [4-Fluoro-N-[2-(2,2,2-trifluoro-1-hydroxy-1-trifluoromethyl-ethyl)-naphthalen-1-yl]-benzamide], the EC50 worked out at 70 nM.
